ChEMBL document CHEMBL1128462, “In vivo and in vitro studies on the neurotoxic potential of 6-hydroxydopamine analogs” (J Med Chem, 1995)

Columns and labels:
[1] = biological target: Sodium-dependent dopamine transporter (Rattus norvegicus, UniProt P23977); assay: Evaluated for the Competitive inhibition of uptake of dopamine transporter
[2] = species on record: Mus musculus; assay: Long term depletion of Dopamine(DA) in Whole mouse Brain at a high dose (300 nmol); type: functional
[3] = species on record: Mus musculus; assay: Long term depletion of Dopamine(DA) in Whole mouse Brain at a low dose (60 nmol); type: functional
[4] = species on record: Mus musculus; assay: Long term depletion of Norepinephrine (NE) in Whole mouse Brain at a high dose (300 nmol); type: functional
[5] = species on record: Mus musculus; assay: Long term depletion of Norepinephrine (NE) in Whole mouse Brain at a low dose (60 nmol); type: functional
[6] = species on record: Mus musculus; assay: Long term depletion of Serotonin(5-HT) in Whole mouse Brain at a high dose (300 nmol); type: functional
[7] = species on record: Mus musculus; assay: Long term depletion of Serotonin(5-HT) in Whole mouse Brain at a low dose (60 nmol); type: functional
[8] = biological target: T1, Norepinephrine transporter (Rattus norvegicus, UniProt Q9WTR4); assay: Evaluated for the Competitive inhibition of uptake of norepinephrine
T1 sequence (Q9WTR4 whole entry): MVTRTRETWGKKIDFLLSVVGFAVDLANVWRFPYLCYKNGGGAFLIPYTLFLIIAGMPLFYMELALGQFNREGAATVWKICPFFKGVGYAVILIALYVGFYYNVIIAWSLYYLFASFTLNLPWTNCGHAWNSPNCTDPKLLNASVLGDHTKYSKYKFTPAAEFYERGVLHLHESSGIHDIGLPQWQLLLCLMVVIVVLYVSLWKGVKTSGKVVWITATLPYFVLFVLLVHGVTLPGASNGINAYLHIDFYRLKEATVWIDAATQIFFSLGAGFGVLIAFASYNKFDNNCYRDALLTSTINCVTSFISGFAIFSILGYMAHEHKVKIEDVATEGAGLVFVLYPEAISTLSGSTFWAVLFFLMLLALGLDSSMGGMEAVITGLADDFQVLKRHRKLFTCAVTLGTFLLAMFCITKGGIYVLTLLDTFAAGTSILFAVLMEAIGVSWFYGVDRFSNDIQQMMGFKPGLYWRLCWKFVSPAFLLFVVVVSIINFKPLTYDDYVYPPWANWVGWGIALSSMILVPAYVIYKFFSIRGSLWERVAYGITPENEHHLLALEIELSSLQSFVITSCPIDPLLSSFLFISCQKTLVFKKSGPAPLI

[9] = species on record: Rattus norvegicus; assay: Evaluated for the stimulation of synaptosomal release of Dopamine (release constant); type: functional
[10] = species on record: Rattus norvegicus; assay: Evaluated for the stimulation of synaptosomal release of norepinephrine (release constant); type: functional
[11] = species on record: Mus musculus; assay: Long term depletion of Dopamine(DA) in Whole mouse Brain region of cerebellum at a high dose (300 nmol); type: functional
[12] = species on record: Mus musculus; assay: Long term depletion of Dopamine(DA) in Whole mouse Brain region of cortex at a high dose (300 nmol); type: functional
[13] = species on record: Mus musculus; assay: Long term depletion of Dopamine(DA) in Whole mouse Brain region of hippocampus at a high dose (300 nmol); type: functional
[14] = species on record: Mus musculus; assay: Long term depletion of Dopamine(DA) in Whole mouse Brain region of hypothalamus at a high dose (300 nmol); type: functional
[15] = species on record: Mus musculus; assay: Long term depletion of Dopamine(DA) in Whole mouse Brain region of medulla-pons at a high dose (300 nmol); type: functional
[16] = species on record: Mus musculus; assay: Long term depletion of Serotonin(5-HT) in Whole mouse Brain region of medulla-pons at a high dose (300 nmol); type: functional
[17] = species on record: Mus musculus; assay: Long term depletion of Serotonin(5-HT) in Whole mouse Brain region of striatum at a high dose (300 nmol); type: functional
[18] = species on record: Mus musculus; assay: Long term depletion of Serotonin(5-HT) in Whole mouse Brain region of thalamus at a high dose (300 nmol); type: functional
[19] = species on record: Mus musculus; assay: Long term depletion of Serotonin(5-HT) in Whole mouse Brain, region of midbrain at a high dose (300 nmol); type: functional
[20] = species on record: Mus musculus; assay: Long term depletion of Dopamine(DA) in Whole mouse Brain region of striatum at a high dose (300 nmol); type: functional
[21] = species on record: Mus musculus; assay: Long term depletion of Dopamine(DA) in Whole mouse Brain region of thalamus at a high dose (300 nmol); type: functional
[22] = species on record: Mus musculus; assay: Long term depletion of Dopamine(DA) in Whole mouse Brain, region of midbrain at a high dose (300 nmol); type: functional
[23] = species on record: Mus musculus; assay: Noradrenergic effect was determined by depletion effect of Dopamine(DA) in mouse brain regions expressed as d50; type: functional
[24] = species on record: Mus musculus; assay: Noradrenergic effect was determined by depletion effect of Nerepinephrine (NE) in mouse brain regions expressed as d50; type: functional
[25] = species on record: Mus musculus; assay: Noradrenergic effect was determined by depletion effect of Serotonin(5-HT) in mouse brain regions expressed as d50; type: functional
[26] = species on record: Mus musculus; assay: Noradrenergic effect was determined by depletion effect of Dopamine(DA) in mouse brain regions expressed as log d50; type: functional, organism-based
[27] = species on record: Mus musculus; assay: Noradrenergic effect was determined by depletion effect of Nerepinephrine (NE) in mouse brain regions expressed as log d50; type: functional, organism-based
[28] = species on record: Mus musculus; assay: Noradrenergic effect was determined by depletion effect of Serotonin(5-HT) in mouse brain regions expressed as log d50; type: functional, organism-based
[29] = species on record: Mus musculus; assay: Long term depletion of Serotonin(5-HT) in Whole mouse Brain region of cerebellum at a high dose (300 nmol); type: functional
[30] = species on record: Mus musculus; assay: Long term depletion of Serotonin(5-HT) in Whole mouse Brain region of cortex at a high dose (300 nmol); type: functional
[31] = species on record: Mus musculus; assay: Long term depletion of Serotonin(5-HT) in Whole mouse Brain region of hippocampus at a high dose (300 nmol); type: functional
[32] = species on record: Mus musculus; assay: Long term depletion of Serotonin(5-HT) in Whole mouse Brain region of hypothalamus at a high dose (300 nmol); type: functional
[33] = species on record: Mus musculus; assay: Long term depletion of Norepinephrine (NE) in Whole mouse Brain region of cerebellum at a high dose (300 nmol); type: functional
[34] = species on record: Mus musculus; assay: Long term depletion of Norepinephrine (NE) in Whole mouse Brain, region of midbrain at a high dose (300 nmol); type: functional
[35] = species on record: Mus musculus; assay: Long term depletion of Norepinephrine (NE) in Whole mouse Brain region of hypothalamus at a high dose (300 nmol); type: functional
[36] = species on record: Mus musculus; assay: Long term depletion of Norepinephrine (NE) in Whole mouse Brain region of striatum at a high dose (300 nmol); type: functional
[37] = species on record: Mus musculus; assay: Long term depletion of Norepinephrine (NE) in Whole mouse Brain region of thalamus at a high dose (300 nmol); type: functional
[38] = species on record: Mus musculus; assay: Long term depletion of Norepinephrine (NE) in Whole mouse Brain region of cortex at a high dose (300 nmol); type: functional
[39] = species on record: Mus musculus; assay: Long term depletion of Norepinephrine (NE) in Whole mouse Brain region of hippocampus at a high dose (300 nmol); type: functional
[40] = species on record: Mus musculus; assay: Long term depletion of Norepinephrine (NE) in Whole mouse Brain region of medulla-pons at a high dose (300 nmol); type: functional
[41] = species on record: Mus musculus; assay: Long term depletion of Dopamine(DA) in Whole mouse Brain region of cerebellum at a high dose (300 nmol) with respect to control value(100+/-9); type: functional
[42] = species on record: Mus musculus; assay: Long term depletion of Serotonin(5-HT) in Whole mouse Brain region of medulla-pons at a high dose (300 nmol) with respect to control value(100+/-6); type: functional
[43] = species on record: Mus musculus; assay: Long term depletion of Dopamine(DA) in Whole mouse Brain region of medulla-pons at a high dose (300 nmol) with respect to control value(100+/-8); type: functional
[44] = species on record: Mus musculus; assay: Long term depletion of Norepinephrine (NE) in Whole mouse Brain, region of midbrain at a high dose (300 nmol) with respect to control value(100+/-8); type: functional
[45] = species on record: Mus musculus; assay: Long term depletion of Norepinephrine (NE) in Whole mouse Brain region of medulla-pons at a high dose (300 nmol) with respect to control value(100+/-9); type: functional
[46] = species on record: Mus musculus; assay: Long term depletion of Norepinephrine (NE) in Whole mouse Brain region of cortex at a high dose (300 nmol) with respect to control value(100+/-6); type: functional
[47] = species on record: Mus musculus; assay: Long term depletion of Norepinephrine (NE) in Whole mouse Brain region of hippocampus at a high dose (300 nmol) with respect to control value(100+/-10); type: functional
[48] = species on record: Mus musculus; assay: Long term depletion of Dopamine(DA) in Whole mouse Brain region of hypothalamus at a high dose (300 nmol) with respect to control value(100+/-14); type: functional
[49] = biological target: T1, Norepinephrine transporter; assay: Evaluated for the Non competitive inhibition of uptake of norepinephrine

Sodium-dependent dopamine transporter, sequence (P23977 whole entry): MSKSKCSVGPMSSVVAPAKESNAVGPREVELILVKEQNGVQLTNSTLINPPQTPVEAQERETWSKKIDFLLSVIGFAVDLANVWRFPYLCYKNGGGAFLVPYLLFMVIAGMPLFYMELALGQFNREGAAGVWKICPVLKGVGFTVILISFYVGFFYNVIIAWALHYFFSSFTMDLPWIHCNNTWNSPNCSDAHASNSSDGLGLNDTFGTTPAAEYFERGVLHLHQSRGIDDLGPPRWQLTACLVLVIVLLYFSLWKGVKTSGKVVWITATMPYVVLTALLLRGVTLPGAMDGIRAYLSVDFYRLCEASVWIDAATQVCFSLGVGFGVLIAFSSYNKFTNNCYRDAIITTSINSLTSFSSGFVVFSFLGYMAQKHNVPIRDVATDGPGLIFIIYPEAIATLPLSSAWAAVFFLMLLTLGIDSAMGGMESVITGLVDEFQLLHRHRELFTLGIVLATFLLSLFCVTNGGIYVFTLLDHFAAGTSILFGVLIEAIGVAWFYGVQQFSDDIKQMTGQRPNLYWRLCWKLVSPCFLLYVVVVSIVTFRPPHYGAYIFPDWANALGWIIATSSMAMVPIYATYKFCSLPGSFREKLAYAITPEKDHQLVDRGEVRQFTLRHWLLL

CC(N)Cc1cc(O)c(O)cc1N (stereo unspecified)
Ki [1]: 9 nM | percent of control [2]: 77% | Control [3]: 96% | Control [4]: 26% | Control [5]: 32% | Control [6]: 59% | Control [7]: 72% | Ki [8]: 8 nM | EC50 [9]: 7000 nM | EC50 [10]: 21000 nM

NCCc1cc(O)c(N)cc1O
Ki [1]: 9 nM | percent of control [2]: 85% | Control [3]: 100% | Control [4]: 39% | Control [5]: 37% | Control [6]: 72% | Control [7]: 73% | Ki [8]: 5 nM | EC50 [9]: 21000 nM | EC50 [10]: 34000 nM

CC(N)Cc1cc(N)c(O)cc1O (stereo unspecified)
Ki [1]: 112 nM | percent of control [2]: 74% | Control [3]: 100% | Control [11]: 63% | Control [12]: 57% | Control [13]: 42% | Control [14]: 120% | Control [15]: 110% | Control [16]: 101% | Control [17]: 104% | Control [18]: 93% | Control [19]: 75% | Control [20]: 71% | Control [21]: 154% | Control [22]: 116% | Control [4]: 22% | d50 [23]: 918 nmol | d50 [24]: 21.5 nmol | d50 [25]: 3220 nmol | Log d50 [26]: 0.00296 µM | Log d50 [27]: 0.00133 µM | Log d50 [28]: 0.00351 µM | Control [29]: 77% | Control [30]: 78% | Control [31]: 63% | Control [32]: 75% | Control [5]: 26% | Control [33]: 3.4% | Control [34]: 74% | Control [6]: 83% | Control [7]: 103% | Control [35]: 1.3% | Control [36]: 7% | Control [37]: 14% | Control [38]: 8% | Control [39]: 6.4% | Ki [8]: 46 nM | EC50 [9]: 380000 nM | EC50 [10]: 672000 nM | Control [40]: 59%

NCCc1cc(O)c(O)cc1N
Ki [1]: 17 nM | percent of control [2]: 79% | Control [3]: 90% | Control [4]: 37% | Control [5]: 40% | Control [6]: 74% | Control [7]: 78% | Ki [8]: 11 nM | EC50 [9]: 3000 nM | EC50 [10]: 23000 nM

NCCc1cc(O)c(O)cc1O [OXIDOPAMINE]
Ki [1]: 12 nM | percent of control [2]: 71% | Control [3]: 86% | Control [41]: 72% | Control [12]: 53% | Control [13]: 25% | Control [42]: 109% | Control [17]: 103% | Control [18]: 90% | Control [19]: 89% | Control [43]: 158% | Control [20]: 76% | Control [21]: 151% | Control [22]: 88% | Control [4]: 35% | d50 [23]: 831 nmol | d50 [24]: 34.3 nmol | d50 [25]: 1930 nmol | Log d50 [26]: 0.00292 µM | Log d50 [27]: 0.00153 µM | Log d50 [28]: 0.00328 µM | Control [29]: 79% | Control [30]: 82% | Control [31]: 71% | Control [32]: 89% | Control [5]: 40% | Control [33]: 3.8% | Control [44]: 70% | Control [6]: 88% | Control [35]: 6.9% | Control [45]: 47% | Control [36]: 23% | Control [37]: 18% | Control [46]: 9% | Control [47]: 5.3% | Ki [8]: 51 nM | EC50 [9]: 60000 nM | EC50 [10]: 828000 nM | Control [48]: 116%

CC(N)Cc1cc(O)c(N)cc1O (stereo unspecified)
Ki [1]: 3 nM | percent of control [2]: 88% | Control [3]: 100% | Control [4]: 40% | Control [5]: 33% | Control [6]: 83% | Control [7]: 79% | Ki [49]: 1 nM | EC50 [9]: 8000 nM | EC50 [10]: 51000 nM

NCCc1cc(N)c(O)cc1O
Ki [1]: 47 nM | percent of control [2]: 84% | Control [3]: 96% | Control [4]: 36% | Control [5]: 40% | Control [6]: 96% | Control [7]: 91% | Ki [8]: 13 nM | EC50 [9]: 105000 nM | EC50 [10]: 212000 nM

CC(N)Cc1cc(O)c(O)cc1O (stereo unspecified)
Ki [1]: 16 nM | Control [3]: 87% | Control [5]: 25% | Control [7]: 93% | Ki [8]: 26 nM | EC50 [9]: 101000 nM | EC50 [10]: 317000 nM
